The values that follow are results of earlier work, collected in patent US9610289B2, “Combinations of AKT inhibitor compounds and erlotinib, and methods of use” (Genentech, Inc., priority 2011, dated 2017).

The series deals with T1, topoisomerase I (Homo sapiens, UniProt P11387).
T1 sequence (P11387 1-765): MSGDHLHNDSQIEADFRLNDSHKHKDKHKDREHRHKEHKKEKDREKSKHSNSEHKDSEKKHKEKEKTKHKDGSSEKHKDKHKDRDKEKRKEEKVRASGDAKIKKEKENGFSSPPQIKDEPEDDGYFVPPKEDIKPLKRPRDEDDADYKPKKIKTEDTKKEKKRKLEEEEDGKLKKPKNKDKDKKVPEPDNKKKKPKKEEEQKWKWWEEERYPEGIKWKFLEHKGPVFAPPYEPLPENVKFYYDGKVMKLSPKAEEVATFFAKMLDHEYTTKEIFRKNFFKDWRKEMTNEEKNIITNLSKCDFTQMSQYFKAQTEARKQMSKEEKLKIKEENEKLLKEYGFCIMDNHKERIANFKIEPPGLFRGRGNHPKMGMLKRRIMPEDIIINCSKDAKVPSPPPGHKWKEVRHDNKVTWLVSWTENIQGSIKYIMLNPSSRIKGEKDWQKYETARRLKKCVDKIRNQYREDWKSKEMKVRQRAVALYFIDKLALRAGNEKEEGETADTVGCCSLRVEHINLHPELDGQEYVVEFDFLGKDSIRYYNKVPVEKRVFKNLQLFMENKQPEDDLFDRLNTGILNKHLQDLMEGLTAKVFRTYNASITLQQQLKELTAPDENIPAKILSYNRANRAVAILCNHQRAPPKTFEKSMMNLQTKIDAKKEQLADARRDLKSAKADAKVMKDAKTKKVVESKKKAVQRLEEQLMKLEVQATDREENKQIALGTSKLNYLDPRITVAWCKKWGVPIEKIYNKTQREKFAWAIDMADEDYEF
The settings on record: active metabolite versus irinotecan.

For `CCc1c2c(nc3ccc(O)cc13)-c1cc3c(c(=O)n1C2)COC(=O)[C@]3(O)CC` [SN-38, 7-ethyl-10-hydroxy-camptothecin], the “more active than irinotecan itself” value is reported as 200 times.
